Measured values published in patent publication US10168342B2, “Lipid probes and uses thereof” (THE SCRIPPS RESEARCH INSTITUTE, priority 2015, dated 2019).
Where two headings read alike, the source gives them in different places.

Assays:
[1] = molecular target: T1, AEA-DA lipid probe targets in Neuro2a cells (Mus musculus, UniProt Q9DC61)
T1 sequence (Q9DC61 34-524): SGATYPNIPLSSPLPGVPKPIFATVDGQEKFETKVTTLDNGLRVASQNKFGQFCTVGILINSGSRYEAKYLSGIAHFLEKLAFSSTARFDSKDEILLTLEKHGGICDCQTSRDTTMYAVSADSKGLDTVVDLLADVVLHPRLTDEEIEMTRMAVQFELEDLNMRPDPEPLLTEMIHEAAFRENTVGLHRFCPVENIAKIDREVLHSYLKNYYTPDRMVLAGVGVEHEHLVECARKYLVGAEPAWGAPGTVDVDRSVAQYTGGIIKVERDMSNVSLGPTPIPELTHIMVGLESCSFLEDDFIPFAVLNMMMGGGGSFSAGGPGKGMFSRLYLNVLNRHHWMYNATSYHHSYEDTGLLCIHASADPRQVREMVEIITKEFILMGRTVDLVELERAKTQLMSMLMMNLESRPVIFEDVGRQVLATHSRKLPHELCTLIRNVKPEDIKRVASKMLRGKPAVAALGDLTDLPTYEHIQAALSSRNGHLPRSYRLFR

[2] = molecular target: T2, AEA-DA lipid probe targets in Neuro2a cells (Mus musculus, UniProt P37040)
T2 sequence (P37040 1-678): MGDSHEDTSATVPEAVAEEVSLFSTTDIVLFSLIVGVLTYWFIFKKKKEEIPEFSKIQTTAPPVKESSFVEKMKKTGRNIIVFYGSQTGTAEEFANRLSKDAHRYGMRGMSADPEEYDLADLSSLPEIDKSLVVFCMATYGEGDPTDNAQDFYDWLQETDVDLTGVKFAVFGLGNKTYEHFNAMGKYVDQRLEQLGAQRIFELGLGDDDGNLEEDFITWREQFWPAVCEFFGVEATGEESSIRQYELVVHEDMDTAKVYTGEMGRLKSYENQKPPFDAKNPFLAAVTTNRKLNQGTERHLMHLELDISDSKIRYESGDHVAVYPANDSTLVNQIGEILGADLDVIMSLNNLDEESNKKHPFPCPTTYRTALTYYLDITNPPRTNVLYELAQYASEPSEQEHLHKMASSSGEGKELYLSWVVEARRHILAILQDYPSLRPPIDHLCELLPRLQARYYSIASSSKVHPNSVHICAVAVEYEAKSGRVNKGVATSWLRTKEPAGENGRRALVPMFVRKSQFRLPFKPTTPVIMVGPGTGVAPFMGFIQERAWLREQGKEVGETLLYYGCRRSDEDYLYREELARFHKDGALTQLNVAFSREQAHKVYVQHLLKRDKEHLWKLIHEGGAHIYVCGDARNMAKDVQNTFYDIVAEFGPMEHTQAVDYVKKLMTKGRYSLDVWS

[3] = molecular target: T3, AEA-DA lipid probe targets in Neuro2a cells (Mus musculus, UniProt Q8VBZ3)
T3 sequence (Q8VBZ3 1-664): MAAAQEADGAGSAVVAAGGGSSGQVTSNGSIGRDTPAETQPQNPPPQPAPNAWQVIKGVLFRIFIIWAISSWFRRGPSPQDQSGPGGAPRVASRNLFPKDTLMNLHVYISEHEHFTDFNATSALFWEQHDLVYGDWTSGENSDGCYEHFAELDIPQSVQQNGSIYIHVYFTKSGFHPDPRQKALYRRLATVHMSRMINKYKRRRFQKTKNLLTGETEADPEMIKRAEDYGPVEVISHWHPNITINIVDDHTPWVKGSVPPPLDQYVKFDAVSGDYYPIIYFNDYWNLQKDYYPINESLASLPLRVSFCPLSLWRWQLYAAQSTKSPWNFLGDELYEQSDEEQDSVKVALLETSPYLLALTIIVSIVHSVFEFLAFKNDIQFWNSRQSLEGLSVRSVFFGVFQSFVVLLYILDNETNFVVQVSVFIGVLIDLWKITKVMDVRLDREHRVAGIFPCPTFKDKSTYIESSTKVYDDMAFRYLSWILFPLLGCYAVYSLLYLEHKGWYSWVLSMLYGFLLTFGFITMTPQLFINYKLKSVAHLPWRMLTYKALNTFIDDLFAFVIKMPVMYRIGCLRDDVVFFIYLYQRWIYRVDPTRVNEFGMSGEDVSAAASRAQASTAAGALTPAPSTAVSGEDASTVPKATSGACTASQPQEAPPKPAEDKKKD

[4] = molecular target: T4, AEA-DA lipid probe targets in Neuro2a cells (Mus musculus, UniProt P55096)
T4 sequence (P55096 1-659): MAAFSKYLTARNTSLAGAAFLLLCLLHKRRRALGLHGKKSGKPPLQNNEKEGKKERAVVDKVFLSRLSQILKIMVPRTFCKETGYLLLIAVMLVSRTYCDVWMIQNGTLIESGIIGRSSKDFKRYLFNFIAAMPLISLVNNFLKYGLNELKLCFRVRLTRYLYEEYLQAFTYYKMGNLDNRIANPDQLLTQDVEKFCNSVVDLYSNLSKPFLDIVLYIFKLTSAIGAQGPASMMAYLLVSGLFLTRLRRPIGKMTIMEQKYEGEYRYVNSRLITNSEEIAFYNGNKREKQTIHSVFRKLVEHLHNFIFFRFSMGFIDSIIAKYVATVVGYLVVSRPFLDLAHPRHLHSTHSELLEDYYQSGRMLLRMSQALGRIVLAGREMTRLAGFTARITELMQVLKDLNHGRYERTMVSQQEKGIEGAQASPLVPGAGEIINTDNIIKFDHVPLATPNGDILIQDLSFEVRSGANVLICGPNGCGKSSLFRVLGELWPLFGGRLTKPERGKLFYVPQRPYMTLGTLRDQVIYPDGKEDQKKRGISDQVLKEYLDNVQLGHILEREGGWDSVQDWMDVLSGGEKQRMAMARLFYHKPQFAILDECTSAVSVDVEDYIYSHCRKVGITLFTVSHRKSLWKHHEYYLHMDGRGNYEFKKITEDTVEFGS

[5] = molecular target: AEA-DA lipid probe targets in Neuro2a cells (Mus musculus, UniProt Q9CQ45)
Sequence of AEA-DA lipid probe targets in Neuro2a cells (Mus musculus, UniProt Q9CQ45) (Q9CQ45 31-171): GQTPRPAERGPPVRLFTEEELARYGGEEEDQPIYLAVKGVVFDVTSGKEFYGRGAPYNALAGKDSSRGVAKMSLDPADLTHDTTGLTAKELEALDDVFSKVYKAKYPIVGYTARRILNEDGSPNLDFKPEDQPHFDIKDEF

Compound	SILAC ratio, Pmpca ([1]; competitor 25 μM)	SILAC ratio, Por ([2]; competitor 25 μM)	SILAC ratio, Clptm1 ([3]; competitor 25 μM)	SILAC ratio Abcd3 ([4]; competitor 25 μM)	SILAC ratio, Nenf ([5]; competitor 25 μM)	further results
CCCCC/C=C\C/C=C\C/C=C\C/C=C\CCCC(=O)NCCO [AEA, anandamide, reference compound]	–	–	–	–	–	SILAC ratio, Pmpca ([1]; competitor 200 μM): 1.9; SILAC ratio, Por ([2]; competitor 200 μM): 2.0; SILAC ratio, Clptm1 ([3]; competitor 200 μM): 2.3; SILAC ratio Abcd3 ([4]; competitor 200 μM): 1.5; SILAC ratio, Nenf ([5]; competitor 200 μM): 1.4
O=C(/C=C/c1cccnc1)NCCCCC1CCN(C(=O)c2ccccc2)CC1 [FK-866, reference compound]	1.2	1.2	1.1	1.3	2.6	–
CN1CCN(C(=O)c2c(-c3ccccc3)c3cc([N+](=O)[O-])ccc3n2C)CC1 [KML110, (1-Methyl-5-nitro-3-phenyl-1H-indol-2-yl)(4-methylpiperazin-1-yl)methanone]	1.6	1.6	1.5	1.2	1.7	–
CN1CCN(C(=O)c2[nH]c3ccc([N+](=O)[O-])cc3c2-c2ccccc2)CC1 [MJN228, (4-Methylpiperazin-1-yl)(5-nitro-3-phenyl-1H-indol-2-yl)methanone]	1.4	1.8	1.6	1.5	1.3	SILAC ratio, Pmpca ([1]; competitor 10 μM): 1.2; SILAC ratio, Pmpca ([1]; competitor 50 μM): 1.4; SILAC ratio, Pmpca ([1]; competitor 100 μM): 1.5; SILAC ratio, Por ([2]; competitor 10 μM): 1.4; SILAC ratio, Por ([2]; competitor 50 μM): 2.0; SILAC ratio, Por ([2]; competitor 100 μM): 3.1; SILAC ratio, Clptm1 ([3]; competitor 10 μM): 1.3; SILAC ratio, Clptm1 ([3]; competitor 50 μM): 1.6; SILAC ratio, Clptm1 ([3]; competitor 100 μM): 2.5; SILAC ratio Abcd3 ([4]; competitor 10 μM): 1.2; SILAC ratio Abcd3 ([4]; competitor 50 μM): 1.3; SILAC ratio Abcd3 ([4]; competitor 100 μM): 1.2; SILAC ratio, Nenf ([5]; competitor 10 μM): 1.3; SILAC ratio, Nenf ([5]; competitor 50 μM): 1.8; SILAC ratio, Nenf ([5]; competitor 100 μM): 1.7
C=CCN(C)CCCCCCOc1ccc(C(=O)c2ccc(Br)cc2)c(F)c1 [Ro 48-8071, reference compound]	0.9	1.5	1.2	0.9	0.9	–
